Measurements: PubChem BioAssay AID256 (DTP/NCI, 2004)
Where “and” joins values, the source holds several entries; their conditions need not be identical. Equal entries are not always repeated. Toxic doses and inconclusive results are not listed.

Tested on: CD2F1 mice, L1210 leukemia ip, survival T/C
Test: NCI In Vivo Anticancer Drug Screen. Data for tumor model L1210 Leukemia (intraperitoneal) in CD2F1 (CDF1) mice
Settings: higher = longer survival
Method in brief: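 Activity against a transplanted murine tumor was judged by comparing the compound group with a vehicle group. The outcome in the treated animals was divided by that in the controls.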

`O=NN(CCCl)C(=O)NC1CCCCC1` was tested, and the T/C (endpoint: mean survival time, dose: 0.5 mg/kg/injection, schedule: Q03HX008 (oral), vehicle: saline) was 214 % of control, the T/C (endpoint: mean survival time, dose: 0.5 mg/kg/injection, schedule: Q03HX024 (oral), vehicle: saline) was 290 % of control and the T/C (endpoint: mean survival time, dose: 0.5 mg/kg/injection, schedule: Q03HX040 (oral), vehicle: saline) was 200 % of control. For the same compound, the T/C (endpoint: mean survival time, dose: 1.0 mg/kg/injection, schedule: Q01DX001 (ip), vehicle: saline) was 98 % of control, the T/C (endpoint: mean survival time, dose: 1.0 mg/kg/injection, schedule: Q01DX005 (ip), vehicle: saline) was 113 % of control and the T/C (endpoint: mean survival time, dose: 1.0 mg/kg/injection, schedule: Q01DX009 (ip), vehicle: saline) was 100 % of control. For the same compound, the T/C (endpoint: mean survival time, dose: 1.0 mg/kg/injection, schedule: Q03HX024 (oral), vehicle: saline) was 194 % of control, the T/C (endpoint: mean survival time, dose: 1.0 mg/kg/injection, schedule: Q03HX040 (oral), vehicle: saline) was 96 % of control and the T/C (endpoint: mean survival time, dose: 2.0 mg/kg/injection, schedule: Q03HX008 (oral), vehicle: saline) was 338 % of control. The T/C (endpoint: mean survival time, dose: 4.0 mg/kg/injection, schedule: Q01DX001 (ip), vehicle: other) was 109 % of control, the T/C (endpoint: mean survival time, dose: 4.0 mg/kg/injection, schedule: Q03HX024 (oral), vehicle: saline) was 96 % of control and the T/C (endpoint: mean survival time, dose: 8.0 mg/kg/injection, schedule: Q01DX001 (ip), vehicle: saline) was 108 % of control. The T/C (endpoint: mean survival time, dose: 8.0 mg/kg/injection, schedule: Q01DX001 (oral), vehicle: saline) was 100 % of control, the T/C (endpoint: mean survival time, dose: 8.0 mg/kg/injection, schedule: Q01DX005 (ip), vehicle: saline) was 267 % of control and the T/C (endpoint: mean survival time, dose: 8.0 mg/kg/injection, schedule: Q01DX009 (ip), vehicle: saline) was 191 % of control. For the same compound, the T/C (endpoint: mean survival time, dose: 8.0 mg/kg/injection, schedule: Q03HX008 (ip), vehicle: saline) was 108 % of control, the T/C (endpoint: mean survival time, dose: 8.0 mg/kg/injection, schedule: Q04DX003 (ip), vehicle: saline) was 124 % of control and the T/C (endpoint: mean survival time, dose: 9.0 mg/kg/injection, schedule: Q01DX001 (ip), vehicle: carboxymethylcellulose (CMC)) was 111 % of control. For the same compound, the T/C (endpoint: mean survival time, dose: 16.0 mg/kg/injection, schedule: Q01DX001 (ip), vehicle: other) was 169 % of control, the T/C (endpoint: mean survival time, dose: 16.0 mg/kg/injection, schedule: Q01DX005 (ip), vehicle: saline) was 393 % of control and the T/C (endpoint: mean survival time, dose: 16.0 mg/kg/injection, schedule: Q01DX009 (ip), vehicle: saline) was 315 % of control. For the same compound, the T/C (endpoint: mean survival time, dose: 16.0 mg/kg/injection, schedule: Q03HX024 (ip), vehicle: saline) was 210 % of control, the T/C (endpoint: mean survival time, dose: 16.0 mg/kg/injection, schedule: Q03HX040 (ip), vehicle: saline) was 217 % of control and the T/C (endpoint: mean survival time, dose: 16.0 mg/kg/injection, schedule: Q04DX003 (ip), vehicle: saline + alcohol) was 158 % of control and 425 % of control. The T/C (endpoint: mean survival time, dose: 16.0 mg/kg/injection, schedule: Q04DX003 (ip), vehicle: saline) was 279 % of control, the T/C (endpoint: mean survival time, dose: 22.0 mg/kg/injection, schedule: Q01DX001 (ip), vehicle: carboxymethylcellulose (CMC)) was 178 % of control and the T/C (endpoint: mean survival time, dose: 32.0 mg/kg/injection, schedule: Q01DX001 (ip), vehicle: other) was 348 % of control. The T/C (endpoint: mean survival time, dose: 32.0 mg/kg/injection, schedule: Q01DX001 (ip), vehicle: saline) was 157 % of control, the T/C (endpoint: mean survival time, dose: 32.0 mg/kg/injection, schedule: Q01DX001 (oral), vehicle: saline) was 118 % of control and the T/C (endpoint: mean survival time, dose: 32.0 mg/kg/injection, schedule: Q01DX005 (ip), vehicle: saline) was 393 % of control. The T/C (endpoint: mean survival time, dose: 32.0 mg/kg/injection, schedule: Q01DX005 (oral), vehicle: saline) was 310 % of control, the T/C (endpoint: mean survival time, dose: 32.0 mg/kg/injection, schedule: Q01DX009 (ip), vehicle: saline) was 224 % of control and the T/C (endpoint: mean survival time, dose: 32.0 mg/kg/injection, schedule: Q01DX009 (oral), vehicle: saline) was 159 % of control. The T/C (endpoint: mean survival time, dose: 32.0 mg/kg/injection, schedule: Q03HX008 (ip), vehicle: saline) was 191 % of control, the T/C (endpoint: mean survival time, dose: 32.0 mg/kg/injection, schedule: Q03HX024 (ip), vehicle: saline) was 421 % of control and the T/C (endpoint: mean survival time, dose: 32.0 mg/kg/injection, schedule: Q03HX040 (ip), vehicle: saline) was 432 % of control. The T/C (endpoint: mean survival time, dose: 32.0 mg/kg/injection, schedule: Q04DX003 (ip), vehicle: saline + alcohol) was 515 % of control, the T/C (endpoint: mean survival time, dose: 32.0 mg/kg/injection, schedule: Q04DX003 (ip), vehicle: saline) was 406 % of control and the T/C (endpoint: mean survival time, dose: 32.0 mg/kg/injection, schedule: Q04DX003 (oral), vehicle: saline) was 267 % of control. The T/C (endpoint: mean survival time, dose: 33.0 mg/kg/injection, schedule: Q01DX001 (ip), vehicle: carboxymethylcellulose (CMC)) was 208 % of control, the T/C (endpoint: mean survival time, dose: 48.0 mg/kg/injection, schedule: Q04DX003 (ip), vehicle: saline + alcohol) was 82 % of control and the T/C (endpoint: mean survival time, dose: 50.0 mg/kg/injection, schedule: Q01DX001 (ip), vehicle: carboxymethylcellulose (CMC)) was 352 % of control. The T/C (endpoint: mean survival time, dose: 64.0 mg/kg/injection, schedule: Q01DX001 (ip), vehicle: other) was 208 % of control, the T/C (endpoint: mean survival time, dose: 64.0 mg/kg/injection, schedule: Q01DX001 (ip), vehicle: saline) was 411 % of control and the T/C (endpoint: mean survival time, dose: 64.0 mg/kg/injection, schedule: Q01DX005 (ip), vehicle: saline) was 98 % of control. The T/C (endpoint: mean survival time, dose: 64.0 mg/kg/injection, schedule: Q01DX005 (oral), vehicle: saline) was 107 % of control, the T/C (endpoint: mean survival time, dose: 64.0 mg/kg/injection, schedule: Q01DX009 (ip), vehicle: saline) was 120 % of control and the T/C (endpoint: mean survival time, dose: 64.0 mg/kg/injection, schedule: Q01DX009 (oral), vehicle: saline) was 95 % of control. For the same compound, the T/C (endpoint: mean survival time, dose: 64.0 mg/kg/injection, schedule: Q03HX008 (ip), vehicle: saline) was 437 % of control, the T/C (endpoint: mean survival time, dose: 64.0 mg/kg/injection, schedule: Q03HX024 (ip), vehicle: saline) was 330 % of control and the T/C (endpoint: mean survival time, dose: 64.0 mg/kg/injection, schedule: Q03HX040 (ip), vehicle: saline) was 259 % of control. The T/C (endpoint: mean survival time, dose: 64.0 mg/kg/injection, schedule: Q04DX003 (ip), vehicle: saline) was 209 % of control, the T/C (endpoint: mean survival time, dose: 75.0 mg/kg/injection, schedule: Q01DX001 (ip), vehicle: carboxymethylcellulose (CMC)) was 332 % of control and the T/C (endpoint: mean survival time, dose: 128.0 mg/kg/injection, schedule: Q01DX001 (ip), vehicle: saline) was 198 % of control. For the same compound, the T/C (endpoint: mean survival time, dose: 128.0 mg/kg/injection, schedule: Q01DX001 (oral), vehicle: saline) was 330 % of control, the T/C (endpoint: mean survival time, dose: 128.0 mg/kg/injection, schedule: Q03HX008 (ip), vehicle: saline) was 437 % of control and the T/C (endpoint: mean survival time, dose: 128.0 mg/kg/injection, schedule: Q03HX040 (ip), vehicle: saline) was 86 % of control. The T/C (endpoint: mean survival time, dose: 128.0 mg/kg/injection, schedule: Q04DX003 (oral), vehicle: saline) was 110 % of control, the T/C (endpoint: mean survival time, dose: 256.0 mg/kg/injection, schedule: Q04DX003 (oral), vehicle: saline) was 86 % of control and the T/C (endpoint: median survival time, dose: 1.0 mg/kg/injection, schedule: Q01DX009 (ip), vehicle: Klucel (hydroxypropylcellulose) (HPC)) was 113 % of control and 106 % of control. For the same compound, the T/C (endpoint: median survival time, dose: 2.0 mg/kg/injection, schedule: Q01DX009 (ip), vehicle: Klucel (hydroxypropylcellulose) (HPC)) was 113 % of control, the T/C (endpoint: median survival time, dose: 4.0 mg/kg/injection, schedule: Q04DX003 (ip), vehicle: saline + alcohol) was 105 % of control and the T/C (endpoint: median survival time, dose: 8.0 mg/kg/injection, schedule: Q04DX003 (ip), vehicle: saline + alcohol) was 98 % of control. For the same compound, the T/C (endpoint: median survival time, dose: 8.4 mg/kg/injection, schedule: Q01DX001 (ip), vehicle: distilled water + Tween-80 + alcohol) was 94 % of control, the T/C (endpoint: median survival time, dose: 14.0 mg/kg/injection, schedule: Q01DX001 (ip), vehicle: distilled water + Tween-80 + alcohol) was 100 % of control and the T/C (endpoint: median survival time, dose: 14.0 mg/kg/injection, schedule: Q07DX003 (ip), vehicle: saline + alcohol) was 157 % of control. The T/C (endpoint: median survival time, dose: 16.0 mg/kg/injection, schedule: Q04DX003 (ip), vehicle: saline + alcohol) was 109 % of control, the T/C (endpoint: median survival time, dose: 20.0 mg/kg/injection, schedule: Q07DX003 (ip), vehicle: saline + alcohol) was 584 % of control and the T/C (endpoint: median survival time, dose: 26.0 mg/kg/injection, schedule: Q07DX003 (ip), vehicle: saline + alcohol) was 669 % of control. For the same compound, the T/C (endpoint: median survival time, dose: 27.0 mg/kg/injection, schedule: Q01DX001 (ip), vehicle: carboxymethylcellulose (CMC)) was 184 % of control, the T/C (endpoint: median survival time, dose: 32.0 mg/kg/injection, schedule: Q04DX003 (ip), vehicle: saline + alcohol) was 438 % of control and the T/C (endpoint: median survival time, dose: 33.0 mg/kg/injection, schedule: Q07DX003 (ip), vehicle: saline + alcohol) was 671 % of control. For the same compound, the T/C (endpoint: median survival time, dose: 40.0 mg/kg/injection, schedule: Q01DX001 (ip), vehicle: carboxymethylcellulose (CMC)) was 722 % of control, the T/C (endpoint: median survival time, dose: 40.0 mg/kg/injection, schedule: Q01DX001 (ip), vehicle: distilled water + Tween-80 + alcohol) was 154 % of control and the T/C (endpoint: median survival time, dose: 64.0 mg/kg/injection, schedule: Q01DX009 (ip), vehicle: Klucel (hydroxypropylcellulose) (HPC)) was 96 % of control and 109 % of control.
